For this assay, the system named is platelet aggregation. The experiment in a line: Ex vivo platelet aggregation induced with ADP or AA. It counts as in vivo, beagle dogs. How it is done:
Whole blood (10 ml) was drawn from a right femoral vein cannula into a plastic syringe containing 3.7% sodium citrate as the anticoagulant (1:100 volume ratio of citrate to blood). A whole blood cell count was determined with an H-2000 cell counter (Texas International Laboratories, Inc., Culver City, Calif.). Platelet-rich plasma (PRP), the supernatant present after centrifugation of whole blood at 100×g for 10 min, was diluted with Platelet-poor plasma (PPP) to achieve a platelet count of approximately […]. PPP was prepared by centrifuging the remaining blood at 1,500×g for 10 min and discarding the bottom cellular layer. Ex vivo platelet aggregation was assessed by established spectrophotometric methods with the use of a four-channel aggregometer (BioData PAP-4; BioData Corp., Horsham, Pa.) by recording the increase in light transmission through a stirred suspension of PRP maintained at 37° C. Aggregation was induced with ADP (20 μM) or AA (0.65 mM). A subaggregatory concentration of epinephrine (550 nM) was used to prime the platelets before addition of the agonists to induce platelet aggregation. Values for platelet aggregation are expressed as percentage of light transmission standardized to PRP and PPP samples yielding 0 and 100% light transmission, respectively.

For the compound `CC1=C(/C=C/C(C)=C/C=C/C(C)=C/C=C/C=C(C)/C=C/C=C(C)/C=C/C2=C(C)C(=O)C(OC(=O)CCC(=O)O)CC2(C)C)C(C)(C)CC(OC(=O)CCC(=O)O)C1=O` (centres unmarked) [DDA, Disodium disuccinate astaxanthin], where the note is “DDA 10, 30 or 50 mg/kg, ADP 20 μM or AA 0.65 mM”, the “ex vivo platelet aggregation responses to AA and ADP” value was “dose dependently attenuated”. Under “DDA 30 and 50 mg/kg doses”, the “ex vivo platelet aggregation” value is on record as “Significant reductions”.

(Values after patent US8063101B2, “Carotenoid analogs and derivatives for the prevention of platelet aggregation” (Cardax Pharmaceuticals, Inc., priority 2007, dated 2011).)
